In brackets after ≈: the same amount, converted by molar mass. Read-outs that look alike come from different tables or passages of the source.
How the values were obtained:
[1] = system: L. infantum intracellular amastigotes; test: Activity against L. infantum intracellular amastigotes in peritoneal macrophages (Giemsa, microscopy); assay type: cell-based, Leishmania (L.) infantum; conditions: for SI AMA: selectivity index amastigotes: CC50 mammalian cells/IC50 Leishmania amastigotes; for IC50: Leishmania infantum, Peritoneal macrophage, intracellular, peritoneal macrophages, 120 h, 100 to 0.78 μg/mL, NA: not active, read-out: IC50 CI95% L. infantum Amastigotes; for L. infantum (Amastigotes) Experimental: class, without activity at 100 µg/mL = inactive
Procedure: (§1) Isolated promastigotes of L. (L.) infantum (MHOM/BR/1972/LD) were maintained in M-199 medium supplemented with 10% fetal bovine serum (FBS) and 0.25% hemin at 24 °C. L. infantum was maintained in golden hamsters up to 60–70 days post-infection. Amastigotes were harvested from spleens of infected hamsters by differential centrifugation. T. cruzi trypomastigotes (Y strain) were maintained in LLC-MK2 (ATCC CCL 7) cells using RPMI-1640 medium supplemented with 2% FBS at 37 °C 5% CO2-humidified incubator [21].
Peritoneal macrophages were collected from the peritoneal cavity of female BALB/c mice by washing with RPMI-1640 without phenol red, supplemented with 10% FBS. NCTC (clone 929) cells were maintained in RPMI-1640 (without phenol red and supplemented with 10% FBS) at 37 °C in a humidified atmosphere containing 5% CO2 [31].
Peritoneal macrophages were obtained as described previously and L. infantum amastigotes were obtained from spleens of infected hamsters by differential centrifugation. Peritoneal macrophages were seeded at 1 × 10^5 cells per well in Nunc™ 16-well slide chambers (Aldrich, St. Louis, MO, USA) for 24 h at 37 °C in a 5% CO2-humidified incubator. Amastigotes were added to macrophages at 10:1 ratio (amastigotes:macrophage) and incubated for 24 h. Non-internalized parasites were removed by washing twice with medium and the cells were then incubated with compounds in a range concentration of 100 to 0.78 μg/mL for 120 h at 37 °C in 5% CO2, using miltefosine as standard drug. At the end of the assay, the cells were fixed in methanol, stained with Giemsa and observed under a light microscope to determine the number of infected macrophages out of 400 cells.

NCTC clone 929 cells = test: Cytotoxicity against mammalian cells (MTT); assay type: cell-based
Procedure: (§2) Peritoneal macrophages were collected from the peritoneal cavity of female BALB/c mice by washing with RPMI-1640 without phenol red, supplemented with 10% FBS. NCTC (clone 929) cells were maintained in RPMI-1640 (without phenol red and supplemented with 10% FBS) at 37 °C in a humidified atmosphere containing 5% CO2 [31]. The 50% cytotoxic concentration (CC50) was determined in NCTC clone 929 cells. NCTC cells were seeded at 6 × 10^4 cells/well in 96-well microplates at 37 °C in a 5% CO2. The mammalian cells were incubated with tested compounds to the highest concentration of 200 μg/mL for 48 h at 37 °C, using miltefosine as standard drug. The viability of the cells was determined by MTT assay at 570 nm. The selectivity index (SI) was determined considering the following equation: CC50 NCTC cells/IC50 parasites.

[2] = Cytotoxicity against mammalian cells (MTT); assay type: cell-based; conditions: mouse
Procedure: as §2

[3] = system: T. cruzi trypomastigotes (Y strain); test: Activity against Trypanosoma cruzi trypomastigotes (MTT); assay type: cell-based; conditions: for T. cruzi (Trypomastigotes) Experimental: class, without activity at 100 µg/mL = inactive; for SI TRY: selectivity index trypomastigotes: CC50 mammalian cells/IC50 trypomastigotes; for IC50: Trypanosoma cruzi, 37 °C, 100 to 0.78 μg/mL, NA: not active, read-out: IC50 CI95% T. cruzi Trypomastigotes
Procedure: as §1
Compounds 1–3, 1a–c, 2a–d, 3a, and 3b were dissolved in DMSO and diluted in RPMI-1640 medium to determine the 50% inhibitory concentration (IC50) as described above for the antileishmanial assay. Free trypomastigotes obtained from LLC-MK2 cultures were counted in a Neubauer hemocytometer and seeded at 1 × 10^6/well in 96-well microplates. The tested compounds were incubated in a range concentration of 100 to 0.78 μg/mL for 24 h at 37 °C in a 5% CO2 humidified incubator, using benznidazole as standard drug. The viability of the trypomastigotes was verified by the MTT assay as described above.

[4] = system: L. infantum promastigotes; test: Activity against L. infantum promastigotes (MTT, light microscopy); assay type: cell-based; conditions: Leishmania infantum; 48 h, 24 °C, 100 to 0.78 μg/mL; NA: not active; read-out: IC50 CI95% L. infantum Promastigotes
Procedure: as §1
To determine the 50% inhibitory concentration (IC50) against L. infantum promastigotes, compounds 1–3, 1a–c, 2a–d, 3a, and 3b were previously dissolved in dimethyl sulphoxide (DMSO) and diluted with M-199 medium in 96-well microplates. Promastigotes were counted in a Neubauer hemocytometer and seeded at 1 × 10^6/well with a final volume of 150 μL. The tested compounds were incubated in a range concentration of 100 to 0.78 μg/mL for 48 h at 24 °C. The viability of promastigotes was verified by motility and morphology using light microscopy and by the colorimetric MTT assay. Briefly, 3-[4,5-dimethylthiazol-2-yl]-2,5-diphenyltetrazolium bromide (MTT, 5 mg/mL) was dissolved in phosphate-buffered saline (PBS), sterilized through 0.22 µm membranes and added, 20 µL/well, for 4 h at 24 °C. […]

[5] = system: T. cruzi trypomastigotes (Y strain); set-up: method as in PMID 24340110; conditions: CI95% not given; cited from earlier work
[6] = system: extracellular forms of the parasite; set-up: method as in PMID 10603400; conditions: cited from earlier work
[7] = system: L. infantum intracellular amastigotes; set-up: method as in PMID 24374794; conditions: CI95% not given; cited from earlier work
[8] = system: L. infantum promastigotes; set-up: method as in PMID 24374794; conditions: CI95% not given; cited from earlier work
[9] = NCTC clone 929 cells, NCTC clone 929, 48 h, highest concentration 200 μg/mL, read-out: CC50 CI95% NCTC

| SMILES | SI AMA: selectivity index amastigotes [1] | L. infantum (Amastigotes) Experimental [1] | CC50 at 48 h ([2]; CC50 CI95% NCTC) [µg/mL] | SI TRY: selectivity index trypomastigotes [3] | IC50 ([3]; 24 h) [µg/mL] | NCTC Experimental (NCTC clone 929 cells) | further results |
| --- | --- | --- | --- | --- | --- | --- | --- |
| C/C(=C/CCC(C)[C@@H]1CC[C@]2(C)C3=CCC4C(C)(C)C(=O)CC[C@]4(C)C3CC[C@@]12C)C(=O)O (stereo partly shown) [Compound 1, 3-Oxotirucalla-7,24Z-dien-27-oic acid] | >3 |  |  |  |  |  | IC50 [1]: 66.5 µg/mL (≈ 146 µM); NCTC Experimental (NCTC clone 929 cells; cytotoxicity class): I; CC50 at 48 h [2, 9]: > 200 µg/mL; IC50 against T. cruzi trypomastigotes ([3]; 24 h): lack of activity; T. cruzi (Trypomastigotes) Experimental [3]: I |
| C/C(=C/CCC(C)[C@@H]1CC[C@]2(C)C3=CCC4C(C)(C)C(O)CC[C@]4(C)C3CC[C@@]12C)C(=O)O (stereo partly shown) [Compound 1a, 3ξ-Hydroxytirucalla-7,24Z-dien-27-oic acid] |  | I | 69.5 (≈ 152 µM) | 3.4 | 20.2 (≈ 44.2 µM) |  |  |
| CC(CCCC(C)[C@@H]1CC[C@]2(C)C3=CCC4C(C)(C)C(O)CC[C@]4(C)C3CC[C@@]12C)C(=O)O (stereo partly shown) [Compound 1b, 3ξ-Hydroxytirucall-7-en-27-oic acid] |  | I | 76.4 (≈ 167 µM) | 4.3 | 17.6 (≈ 38.5 µM) |  |  |
| CC(CCCC(C)[C@@H]1CC[C@]2(C)C3=CCC4C(C)(C)C(=O)CC[C@]4(C)C3CC[C@@]12C)C(=O)O (stereo partly shown) [Compound 1c, 3-Oxotirucall-7-en-27-oic acid] |  | I | > 200 |  |  | I | T. cruzi (Trypomastigotes) Experimental [3]: I |
| C/C(=C\CCC(C)[C@@H]1CC[C@]2(C)C3=CCC4C(C)(C)C(=O)CC[C@]4(C)C3CC[C@@]12C)C(=O)O (stereo partly shown) [Compound 2, 3-Oxotirucalla-7,24E-dien-27-oic acid] | 1.5 |  |  | 6.1 | 15.8 (≈ 34.6 µM) |  | IC50 [1]: 64.9 µg/mL (≈ 143 µM); CC50 CI95% NCTC (NCTC clone 929 cells; NCTC clone 929, 48 h, highest concentration 200 μg/mL): 96.48 (77.38–120.30) μg/mL; NCTC Experimental (NCTC clone 929 cells; cytotoxicity class): I; CC50 at 48 h [2, 9]: 96 µg/mL (≈ 211 µM) |
| C/C(=C\CCC(C)[C@@H]1CC[C@]2(C)C3=CCC4C(C)(C)C(O)CC[C@]4(C)C3CC[C@@]12C)C(=O)O (stereo partly shown) [Compound 2a, 3ξ-Hydroxytirucalla-7,24E-dien-27-oic acid] | 1.0 |  | 95.5 (≈ 209 µM) | 3.2 | 29.6 (≈ 64.8 µM) | I | IC50 [1]: 97.6 µg/mL (≈ 214 µM) |
| CC(=O)OC1CC[C@]2(C)C3CC[C@@]4(C)[C@H](C(C)CC/C=C(\C)C(=O)O)CC[C@]4(C)C3=CCC2C1(C)C (stereo partly shown) [Compound 2b, 3ξ-Acetoxytirucalla-7,24E-dien-27-oic acid] |  | I | 69.3 (≈ 139 µM) | 1.1 | 58.4 (≈ 117 µM) | I |  |
| CC(=O)OC1CC[C@]2(C)C3CC[C@@]4(C)[C@H](C(C)CCCC(C)C(=O)O)CC[C@]4(C)C3=CCC2C1(C)C (stereo partly shown) [Compound 2c, 3ξ-Acetoxytirucall-7-en-27-oic acid] |  | I | 57.8 (≈ 115 µM) | 1.2 | 49.2 (≈ 98.2 µM) | I |  |
| COC(=O)/C(C)=C/CCC(C)[C@@H]1CC[C@]2(C)C3=CCC4C(C)(C)C(=O)CC[C@]4(C)C3CC[C@@]12C (stereo partly shown) [Compound 2d, Methyl 3-oxotirucalla-7,24E-dien-27-oate] |  | I |  |  |  |  | NCTC Experimental (NCTC clone 929 cells; cytotoxicity class): I; CC50 at 48 h [2, 9]: > 200 µg/mL; T. cruzi (Trypomastigotes) Experimental [3]: I |
| C/C(=C/CCC(C)[C@@H]1CC[C@]2(C)C3=CCC4C(C)(C)[C@H](O)CC[C@]4(C)C3CC[C@@]12C)C(=O)O (stereo partly drawn) [Compound 3, 3α-Hydroxytirucalla-7,24Z-dien-27-oic acid] | 2.4 |  | 69 (≈ 151 µM) | 4.3 | 16.3 (≈ 35.6 µM) |  | IC50 [1]: 28.9 µg/mL (≈ 63.4 µM); CC50 CI95% NCTC (NCTC clone 929 cells; mouse, 48 h): 69.50 (64.01–75.45) μg/mL; IC50 [4]: 57.8 µg/mL (≈ 127 µM) |
| COC(=O)/C(C)=C\CCC(C)[C@@H]1CC[C@]2(C)C3=CCC4C(C)(C)[C@H](O)CC[C@]4(C)C3CC[C@@]12C (stereo partly drawn) [Compound 3a, Methyl 3α-hydroxytirucalla-7,24Z-dien-27-oate] |  | I | > 200 |  |  | I |  |
| COC(=O)/C(C)=C\CCC(C)[C@@H]1CC[C@]2(C)C3=CCC4C(C)(C)[C@H](OC(C)=O)CC[C@]4(C)C3CC[C@@]12C (stereo partly drawn) [Compound 3b, Methyl 3α-acetoxytirucalla-7,24Z-dien-27-oate] |  | I | > 200 |  |  | I |  |
| O=C(Cn1ccnc1[N+](=O)[O-])NCc1ccccc1 [benznidazole] |  |  |  |  |  |  | IC50 T. cruzi Trypomastigotes (standard drug) [5]: 115 µg/mL (≈ 441 µM) |
| CNC[C@H](O)[C@@H](O)[C@H](O)[C@H](O)CO.[O]=[Sb](=[O])[OH] [glucantime] |  |  |  |  |  |  | effectiveness against the extracellular forms of the parasite [6]: no effectiveness |
| CCCCCCCCCCCCCCCCOP(=O)([O-])OCC[N+](C)(C)C [miltefosine, reference compound] | 7 |  |  |  |  |  | IC50 L. infantum Amastigotes (standard drug) [7]: 7.25 µg/mL (≈ 17.8 µM); CC50 at 48 h [2, 9]: 49.7 µg/mL (≈ 122 µM); IC50 L. infantum Promastigotes (standard drug) [8]: 6.87 µg/mL (≈ 16.9 µM) |

— article PMC6271887, “Antiparasitic Activity of Natural and Semi-Synthetic Tirucallane Triterpenoids from Schinus terebinthifolius (Anacardiaceae): Structure/Activity Relationships” (Molecules, 2014)
